For experiment [1], the system named is C. neoformans. Kind of experiment: AK assay with C. neoformans (lysis). In kind it is cell-based. The source says: The AK assay was designed to take advantage of the fact that dead yeast cells lose membrane integrity and leak intracellular enzymes and proteins into culture medium. Upon cell lysis, AK is released into the medium and is detected by a coupled enzyme reaction in which AK converts 2 molecules of ADP into ATP. The ATP and luciferin are used by luciferase and a luminescent signal is generated as a reporter of yeast cell lysis (FIG. 1). […] Additionally, traditional growth-based screening cannot differentiate between fungistatic and fungicidal molecules.
In order to determine whether the AK assay was applicable to C. neoformans, a set of molecules containing drugs was tested. […] Agents Chemother.

For experiment [2], the system named is C. neoformans. The note with it: cited from earlier work.
The conditions of experiment [3]: other laboratories (Vu and Gelli); cited from earlier work.
The test system of experiment [4] is C. neoformans. Conditions: reported by Vu and Gelli; cited from earlier work.
The test system of experiment [5] is S. cerevisiae. Kind of experiment: adenylate kinase (AK) assay with S. cerevisiae (yeast cell lysis). Conditions: for AK assay result (fungilytic activity): screen of Prestwick Library. In kind it is cell-based. The method, then:
A high throughput assay that detects molecules that cause yeast cell lysis was recently developed as a new method for anti-fungal drug discovery (Krysan and DiDone, J. Biomol. Screen 13:657-64 (2008)). The adenylate kinase (AK) assay has three important features that make it a very useful tool for the identification of fungicidal anti-cryptococcal molecules: it is specific for fungicidal molecules; it is cell-based; and it is carried out with C. neoformans directly.
The AK assay was designed to take advantage of the fact that dead yeast cells lose membrane integrity and leak intracellular enzymes and proteins into culture medium. Upon cell lysis, AK is released into the medium and is detected by a coupled enzyme reaction in which AK converts 2 molecules of ADP into ATP. The ATP and luciferin are used by luciferase and a luminescent signal is generated as a reporter of yeast cell lysis (FIG. 1). The AK assay is specific for molecules that are fungicidal and is more sensitive than traditional growth-based antifungal screening assays. Additionally, traditional growth-based screening cannot differentiate between fungistatic and fungicidal molecules.
As part of the validation studies, a library of 1200 previously marketed drugs (Prestwick Library) was screened using the AK assay with S. cerevisiae (Krysan and DiDone, J. Biomol. Screen 13:657-64 (2008)). The library contained 15 clinically used antifungal drugs, of which 9 scored positive as fungilytic. […] In addition to molecules with known antifungal activity, fungilytic activity was identified in 10 drugs for which no antifungal activity had been reported previously (FIG. 3B). Subsequently, the antifungal activity of two drugs, astemizole and suloctidil was confirmed by other laboratories (Vu and Gelli, Med. Mycol. 1-9 (2009)). Thus, the AK assay is a sensitive reporter of antifungal activity in the HTS setting.

A further experiment relates to S. cerevisiae cells. Kind of experiment: growth assay / MIC with S. cerevisiae cells. In kind it is cell-based. The note with it: Saccharomyces cerevisiae; this strain of S. cerevisiae cells; read-out: minimum inhibitory concentration (MIC).
For experiment [6], the system named is C. albicans. Kind of experiment: follow-up lysis assay with C. albicans. In kind it is cell-based.
The subject of another experiment is pathogenic yeast. Kind of experiment: in vitro susceptibility testing of a range of pathogenic yeast, CLSI standardized methods. In kind it is cell-based.
Experiment [7] concerns C. neoformans. Kind of experiment: MIC against C. neoformans. In kind it is cell-based. Conditions: for MIC: Cryptococcus neoformans. The method, then: (§1) To complete the characterization of the antifungal activity of triphenylethylene-based estrogen receptor antagonists, toremifene was also evaluated. […] The interaction of toremifene with FLC was also evaluated using checkerboard methods.

The subject of experiment [8] is C. albicans. Kind of experiment: MIC against C. albicans. In kind it is cell-based. Conditions: Candida albicans. The method, then:
as §1

Experiment [9] deals with C. albicans. Kind of experiment: mouse model of disseminated candidiasis, kidney fungal burden. It is filed as in vivo. The note with it: mice, 7 day pre-treatment at 200 mg/kg, C. albicans tail vein injection, 48 hour kidney burden. The method, then:
FIGS. 5A and 5B show in vitro and in vivo antifungal activity of TAM/CLM.
Mice were treated with either sham or tamoxifen for seven days prior to challenge with C. albicans by tail vein injection. […] The mice were treated for an additional two days, sacrificed, and kidney fungal burdens determined. Kidney fungal burden is a well-characterized quantitative endpoint that correlates with efficacy. […] These studies further support the potential utility of this class of molecules as antifungal agents.

Experiment [10] relates to S. cerevisiae. Kind of experiment: chemical genetic analysis: growth of S. cerevisiae PKC1/CMD1 strains on tamoxifen plates. In kind it is cell-based. The source says: Previously, the molecular target of tamoxifen and related compounds in yeast was unknown. […] Both of these proteins are essential in yeast.
The subject of a further experiment is T1, calmodulin with Myo2p.
T1 construct: host or cells: Myo2-GFP came from crude lysates of yeast cells expressing it
Kind of experiment: pull down of Myo2-GFP by sepharose bead immobilized calmodulin from yeast cell lysates. It is filed as binding. Conditions: in vitro, crude yeast cell lysates.

Another experiment concerns Myo2-GFP. Kind of experiment: Myo2-GFP localization to bud neck/septum during mitosis. In kind it is cell-based, yeast.
Experiment [11] deals with C. neoformans. Kind of experiment: non-antibody mediated phagocytosis of C. neoformans by J774 cells. It is filed as cell-based, murine. Conditions: absence of opsonization; subinhibitory toremifene 4 μg/ml overnight.
Description: C. neoformans JEC21 cells were treated overnight with DMSO or subinhibitory toremifene (4 μg/ml), washed, and exposed to J774 macrophage cells for 2 hours without antibody.

Data on ten compounds can be found in US9040570B2, “Compounds for anti-fungal treatment” (priority 2010, dated 2015).

≈ marks a conversion by molar mass, not a printed value. Entries after “also recorded” stand apart in the source; their conditions may differ.

Take `CCCCc1oc2ccccc2c1C(=O)c1cc(I)c(OCCN(CC)CC)c(I)c1` [amiodarone]: in the experiment on C. neoformans [1], the “AK release / lysis” value is “AK release was detected”.

With `C[C@@H]1[C@H](O)[C@@H](C)/C=C/C=C/C=C/C=C/C=C/C=C/C=C/[C@H](O[C@@H]2O[C@H](C)[C@@H](O)[C@H](N)[C@@H]2O)C[C@@H]2O[C@](O)(C[C@@H](O)C[C@@H](O)[C@H](O)CC[C@@H](O)C[C@@H](O)CC(=O)O[C@H]1C)C[C@H](O)[C@H]2C(=O)O` [amphotericin B], the “efficiency by which macrophages phagocytose C. neoformans” value with C. neoformans [2] (background statement) is “increase”.

In the case of `COc1ccc(CCN2CCC(Nc3nc4ccccc4n3Cc3ccc(F)cc3)CC2)cc1` [astemizole], the “AK release / lysis” value in the experiment with C. neoformans [1] is reported as “caused lysis”. For the same compound, in experiment [3], the antifungal activity result was “confirmed”. Also, in the experiment with C. neoformans [4], the “fungicidal activity toward C. neoformans” value is reported as “fungicidal” and the “interaction with FLC” value is reported as “synergistic”.

On to `CC[C@H](C)C[C@H](C)CCCCCCCCC(=O)N[C@H]1C[C@@H](O)[C@@H](NCCN)NC(=O)[C@@H]2[C@@H](O)CCN2C(=O)[C@H]([C@H](O)CCN)NC(=O)[C@H]([C@H](O)[C@@H](O)c2ccc(O)cc2)NC(=O)[C@@H]2C[C@@H](O)CN2C(=O)[C@H]([C@@H](C)O)NC1=O` [caspofungin], for which, in the experiment on S. cerevisiae [5] (fold below), the “concentration inducing AK release relative to concentration causing detectable change in growth rate” value is reported as roughly 10 fold. Further, the MIC in the experiment on S. cerevisiae cells was 0.062 µg/mL (≈ 0.0567 µM). In the experiment with C. neoformans [1], the “AK release / lysis” value was “not”.

Take `CCN(CC)CCOc1ccc(C(=C(Cl)c2ccccc2)c2ccccc2)cc1` [clomiphene]: in the experiment on S. cerevisiae [5], the “AK assay result (fungilytic activity)” value is recorded as “highly fungilytic”. Besides, the “AK release / lysis” value with C. neoformans [1] is reported as “cause lysis”. Moreover, the lysis entry with C. albicans [6] is “cause lysis”. Moreover, the “activity relative to tamoxifen” value in the experiment with pathogenic yeast was “consistently less active”. The MIC in the experiment with C. neoformans [7] was 64 µg/mL.

For `OC(Cn1cncn1)(Cn1cncn1)c1ccc(F)cc1F` [fluconazole], in the experiment on S. cerevisiae [5], the “AK assay result (fungilytic activity)” value is reported as “negative; also recorded: not positive”. For the same compound, the MIC in the experiment on C. neoformans [7] stood at 4 µg/mL. The increase of phagocytosis with C. neoformans [2] (Nosanchuk et al.) was 2 fold.

Regarding `COC1=CC(=O)C[C@@H](C)[C@]12Oc1c(Cl)c(OC)cc(OC)c1C2=O` [griseofulvin], in the experiment with S. cerevisiae [5], the “AK assay result (fungilytic activity)” value is given as “negative; also recorded: not positive”.

On to `CCCCCCCCNC(C)C(O)c1ccc(SC(C)C)cc1` (centres unmarked) [suloctidil], for which, in experiment [3], the antifungal activity entry is “confirmed”.

As for `CC/C(=C(\c1ccccc1)c1ccc(OCCN(C)C)cc1)c1ccccc1` [tamoxifen], the “AK assay result (fungilytic activity)” value in the experiment on S. cerevisiae [5] is listed as “highly fungilytic”. In addition, the lysis result with C. albicans [6] was “cause lysis”. Moreover, the MIC in the experiment on C. albicans [8] is 32 µg/mL; in the experiment with C. neoformans [7], 64 µg/mL. Further, the “lowering of kidney fungal burden” value in the experiment with C. albicans [9] is 1.5 log10. Moreover, the “sensitivity of strains with hypofunctional alleles of CMD1” value in the experiment on S. cerevisiae [10] (S. cerevisiae cmd1 mutants) is given as “hypersensitive”. In the experiment with S. cerevisiae [10] (wild type S. cerevisiae overexpressing CMD1), the “effect of CMD1 overexpression on growth on tamoxifen plates” value is reported as “suppressed toxicity”. For the same compound, the “effect of PKC1 overexpression on growth on tamoxifen plates” value in the experiment with S. cerevisiae [10] (wild type S. cerevisiae overexpressing PKC1) is reported as “exacerbated its effects”. Further, in the experiment on calmodulin with Myo2p, the “ability of immobilized calmodulin to pull down Myo2-GFP” value is “interferes”. In addition, the “Myo2-GFP localizing to the bud neck/septum region” value with Myo2-GFP was “prevented”.

As to `CN(C)CCOc1ccc(/C(=C(/CCCl)c2ccccc2)c2ccccc2)cc1` [toremifene], the “increase in AK release” value with C. neoformans [1] (at 4 μg/mL) is 12 fold. Further, the MIC in the experiment on C. albicans [8] is 32 µg/mL. Moreover, in the experiment on C. neoformans [7], the “MIC lower than either tamoxifen or clomiphene” value is on record as 16 fold, the “increase of MIC at 30° C. relative to 37° C.” value was determined as 2 fold and the MIC was determined as 4 µg/mL. Further, the “increase of phagocytosis of C. neoformans by J774 cells” value in the experiment with C. neoformans [11] stood at 2 fold.
